Here are results for one cell line from the supplement of paper PMC10307832.

Common to all, as to assay: relative viability (nuclei count vs DMSO), 5 days (fraction); higher = more cells survive
Compound in experiment [1]: Cc1ccc(-n2nc(C(C)(C)C)cc2NC(=O)Nc2ccc(OCCN3CCOCC3)c3ccccc23)cc1 [Doramapimod] + O=C(c1cc(Cc2n[nH]c(=O)c3ccccc23)ccc1F)N1CCN(C(=O)C2CC2)CC1 [Olaparib] (partner 8 µM)
An outline of the steps: (§1)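 Lung cancer cell lines were seeded in 1536-well plates and dosed by pin tool the next day, with either a single drug or a fixed anchor-drug dose combined with five library-drug doses (not always all listed) spaced in √10 steps. Five days later, one step fixed the cells and stained their nuclei (final 0.05% Triton X-100, 1% formaldehyde, 1 ug/ml Hoechst), and nuclei were counted on 4× images. Relative viability is the nuclei count in treated wells divided by the count in vehicle wells, and each value is the median of duplicate plates.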

Compound in experiment [2]: Cn1c(Nc2ccc(C(F)(F)F)cc2)nc2cc(Oc3ccnc(-c4ncc(C(F)(F)F)[nH]4)c3)ccc21 [RAF265] + COc1cccc2cc(-c3nc([C@H]4CC[C@H](C(=O)O)CC4)n4ncnc(N)c34)[nH]c12 [OSI-027] (partner 0.5 µM)
A digest of the protocol:
as §1

Compound in experiment [3]: C1=CC=C2C(=C1)C=CC(=C2SSC3=C(C=CC4=CC=CC=C43)O)O [IPA-3] + C[C@@H](Oc1cc(-c2cnn(C3CCNCC3)c2)cnc1N)c1c(Cl)ccc(F)c1Cl [Crizotinib] (partner 1 µM)
A digest of the protocol:
as §1

Compound in experiment [4]: C1=CC=C2C(=C1)C=CC(=C2SSC3=C(C=CC4=CC=CC=C43)O)O [IPA-3] + COc1cc2c(Oc3ccc(NC(=O)C4(C(=O)Nc5ccc(F)cc5)CC4)cc3F)ccnc2cc1OCCCN1CCOCC1 [Foretinib] (partner 0.25 µM)
A digest of the protocol: as §1

Consider UMC-11, for which the relative viability is 0.353 in experiment [1] (first compound 0.02 µM); 0.348 in experiment [1] (first compound 0.06325 µM); 0.274 in experiment [1] (first compound 0.2 µM); 0.963 in experiment [1] (first compound 0.6325 µM); 0.365 in experiment [1] (first compound 2 µM); 0.491 in experiment [2] (first compound 0.01 µM). The relative viability was found to be 0.48 in experiment [2] (first compound 0.03162 µM); 0.464 in experiment [2] (first compound 0.1 µM); 0.457 in experiment [2] (first compound 0.3162 µM); 0.378 in experiment [2] (first compound 1 µM); 0.605 in experiment [3] (first compound 0.2 µM); 0.524 in experiment [3] (first compound 0.6325 µM). Also, the relative viability turned out to be 0.798 in experiment [3] (first compound 2 µM); 0.579 in experiment [3] (first compound 6.325 µM); 0.673 in experiment [3] (first compound 20 µM); 1.11 in experiment [4] (first compound 0.2 µM); 0.983 in experiment [4] (first compound 0.6325 µM); 1.08 in experiment [4] (first compound 2 µM). The relative viability in experiment [4] (first compound 6.325 µM) is 1; in experiment [4] (first compound 20 µM), 1.25.
